Experimental data from a compilation of properties of binary mixtures (doi:10.2298/jsc190413047v).

Assay: xn = mol fraction of the nth substance listed
Settings: 100 kPa

CCCC[n+]1ccn(C)c1.O=S(=O)([N-]S(=O)(=O)C(F)(F)F)C(F)(F)F + O=C1CCCCO1
x1 = 1
Settings	electrical conductivity [S/m]
293.15 K	0.337
303.15 K	0.472
308.15 K	0.552
313.15 K	0.64
323.15 K	0.835

CCCCCCCCn1cc[n+](C)c1.O=S(=O)([N-]S(=O)(=O)C(F)(F)F)C(F)(F)F + O=C1CCCO1
electrical conductivity [S/m]
Settings	x2 = 0	x2 = 0.0997	x2 = 0.2993	x2 = 0.5048	x2 = 0.6963	x2 = 0.7994	x2 = 0.8503	x2 = 0.8999	x2 = 0.9514
293.15 K	0.106	0.126	0.184	–	0.601	0.845	0.953	0.984	0.653
298.15 K	–	0.161	0.235	0.396	–	0.955	1.06	1.07	0.718
303.15 K	0.17	0.199	0.28	0.474	0.83	1.07	1.17	1.18	–
308.15 K	–	0.24	0.342	0.553	0.94	1.21	1.29	1.29	0.853
313.15 K	0.254	0.285	–	0.636	1.06	1.33	1.41	1.39	0.915
318.15 K	–	–	0.48	0.744	1.19	1.47	1.53	–	0.976
323.15 K	0.361	0.397	–	0.817	1.33	1.56	1.64	1.59	–

CCCCn1cc[n+](C)c1C.O=S(=O)([N-]S(=O)(=O)C(F)(F)F)C(F)(F)F + O=C1CCCO1
electrical conductivity [S/m]
Settings	293.15 K	298.15 K	303.15 K	308.15 K	313.15 K	318.15 K	323.15 K
x2 = 0	0.178	0.23	0.289	0.351	0.426	–	–
x2 = 0.1014	–	0.262	0.325	0.398	–	0.569	0.669
x2 = 0.1987	0.246	0.301	0.367	0.442	0.525	0.619	0.739
x2 = 0.3	–	0.37	–	–	0.631	0.729	0.842
x2 = 0.4001	0.381	0.465	0.567	0.67	0.787	0.904	1.03
x2 = 0.4995	0.511	0.613	0.722	0.861	0.976	1.1	1.27
x2 = 0.5994	0.706	0.807	0.934	1.07	1.22	1.36	1.52
x2 = 0.7012	0.882	1.01	1.14	–	–	–	1.74
x2 = 0.8001	–	1.25	1.39	1.53	1.68	1.83	1.99
x2 = 0.8496	1.19	1.31	1.45	1.58	1.72	1.85	2
x2 = 0.8996	1.18	–	1.41	1.53	1.66	1.78	1.91
x2 = 0.9468	0.849	0.927	–	1.1	1.2	1.3	1.41

CCCCCC[n+]1ccn(C)c1.O=S(=O)([N-]S(=O)(=O)C(F)(F)F)C(F)(F)F + O=C1CCCO1
electrical conductivity [S/m]
Settings	x2 = 0	x2 = 0.1076	x2 = 0.2973	x2 = 0.4956	x2 = 0.6996	x2 = 0.8001	x2 = 0.8456	x2 = 0.9001	x2 = 0.9493
293.15 K	0.176	0.21	–	0.47	0.819	1.07	1.13	–	–
298.15 K	0.221	–	0.362	0.556	0.932	1.19	1.25	1.23	–
303.15 K	–	0.319	0.431	–	1.05	1.31	1.36	–	0.896
308.15 K	–	–	–	0.751	1.17	1.44	1.49	–	0.968
313.15 K	0.398	–	–	0.863	–	1.57	–	1.57	1.04
318.15 K	0.467	0.539	–	0.979	1.46	1.71	–	1.69	–
323.15 K	–	–	–	1.11	1.61	–	–	1.8	1.17

CC[n+]1ccn(C)c1.O=S(=O)([N-]S(=O)(=O)C(F)(F)F)C(F)(F)F + O=C1CCCO1
electrical conductivity [S/m]
Settings	293.15 K	298.15 K	303.15 K	308.15 K	313.15 K	318.15 K	323.15 K
x2 = 0	–	0.915	–	–	–	1.51	1.75
x2 = 0.1009	0.905	1.04	1.18	1.32	1.49	1.67	1.89
x2 = 0.2073	1.05	–	–	1.48	1.65	–	–
x2 = 0.3005	–	1.32	–	1.61	–	1.96	2.19
x2 = 0.3897	1.29	1.45	1.61	1.76	1.92	2.11	2.34
x2 = 0.5101	–	1.63	–	1.95	2.12	–	2.53
x2 = 0.6	1.6	1.76	1.93	2.09	2.25	2.45	–
x2 = 0.7	1.73	1.9	–	2.23	2.4	2.59	2.81
x2 = 0.7994	1.77	1.94	–	–	2.42	–	2.79
x2 = 0.8498	1.75	1.9	–	2.19	2.35	2.51	2.71
x2 = 0.9005	–	1.72	1.85	1.98	–	2.25	2.4
x2 = 0.95	–	1.22	–	1.4	1.5	–	1.7
